Test results published in patent US20070128217A1 (priority 2003, published 2007).

How the values were obtained:
[1] = tested on: control sera (pooled serum of ten healthy LUMC hospital workers; commercial negative donor pooled serum from the Dutch bloodbank); assay type: binding, human; parameters: Binding of Control serum LUMC to linear peptides / Binding of Control serum Blood-bank to linear peptides / Binding of Control serum LUMC to looped peptides / Binding of Control Serum Blood-Bank to Looped peptides / Binding of Control serum LUMC to linear peptides of the protein M of SARS-CoV Urbani / Binding of Control serum Blood-bank to linear peptides of the protein M of SARS-CoV Urbani / Binding of Control serum LUMC to looped peptides of the protein M of SARS-CoV Urbani / Binding of Control Serum Blood-Bank to Looped peptides of the protein M of SARS-CoV Urbani: unit not given here
[2] = tested on: rabbit serum obtained by immunizing a rabbit with the SARS-CoV strain Frankfurt 1; assay type: binding; parameters: Binding of a rabbit serum to linear peptides / Binding of a rabbit serum to looped peptides / Rabbit serum linear peptides / Rabbit serum looped peptides / Binding of a rabbit serum to linear peptides of protein N of SARS-CoV Urbani (Rabbit serum linear peptides) / Binding of a rabbit serum to looped/cyclic peptides of protein N of SARS-CoV Urbani (Rabbit serum looped peptides): unit not given here
[3] = tested on: recombinant human anti-SARS-CoV antibody 03-018; assay type: binding; parameters: Binding of antibody 03-018 to linear peptides of the N protein of SARS-CoV Urbani / Binding of antibody 03-018 to looped/cyclic peptides of the N protein of SARS-CoV Urbani: unit not given here
[4] = tested on: antibodies in sera from SARS patients (sera 1a, 1b, 2, 6, 37, 62, London, SARS-yellow, SARS-green); assay type: binding, human; parameters: Binding of serum 6 to linear peptides of protein X1 of SARS-CoV Urbani / Binding of serum 37 to linear peptides of protein X1 of SARS-CoV Urbani / Binding of serum 6 to looped/cyclic peptide (PEPSCAN-ELISA) / Binding of serum 37 to looped/cyclic peptide (PEPSCAN-ELISA) / Binding of serum 37 to looped/cyclic peptides of protein X1 of SARS-CoV Urbani / Binding of serum 6 to linear peptides of protein X2 / Binding of serum 37 to linear peptides of protein X2 / Binding of serum 37 to looped/cyclic peptides of protein X2 of SARS-CoV Urbani / Binding of serum 6 to linear peptides of protein M of SARS-CoV Urbani / Binding of serum 37 to linear peptides of protein M of SARS-CoV Urbani / Binding of serum 6 to looped/cyclic peptides of protein M of SARS-CoV Urbani / Binding of serum 37 to looped/cyclic peptides of protein M of SARS-CoV Urbani / Binding of serum 6 to linear peptides of protein X3 of SARS-CoV Urbani / Binding of serum 37 to linear peptides of protein X3 of SARS-CoV Urbani / Binding of serum 37 to looped/cyclic peptides of protein X3 of SARS-CoV Urbani / Binding of serum 6 to linear peptides of protein X4 of SARS-CoV Urbani / Binding of serum 37 to linear peptides of protein X4 of SARS-CoV Urbani / Binding of serum 37 to looped/cyclic peptides of protein X4 of SARS-CoV Urbani / Binding of serum 6 to linear peptides of protein X5 of SARS-CoV Urbani / Binding of serum 37 to linear peptides of protein X5 of SARS-CoV Urbani / Binding of serum 37 to looped/cyclic peptides of protein X5 of SARS-CoV Urbani / Binding of serum 6 to linear peptides of protein N of SARS-CoV Urbani / Binding of serum 37 to linear peptides of protein N of SARS-CoV Urbani / Binding of serum 6 to linear peptide (PEPSCAN-ELISA) / Binding of serum 1a to looped/cyclic peptides of protein N of SARS-CoV Urbani / Binding of serum 1b to looped/cyclic peptides of protein N of SARS-CoV Urbani / Binding of serum 2 to looped/cyclic peptides of protein N of SARS-CoV Urbani / Binding of serum 6 to looped/cyclic peptides of protein N of SARS-CoV Urbani / Binding of serum 37 to looped/cyclic peptides of protein N of SARS-CoV Urbani / Binding of serum 62 to looped/cyclic peptides of protein N of SARS-CoV Urbani / Binding of serum London to looped/cyclic peptides of protein N of SARS-CoV Urbani / Binding of serum SARS-green to looped/cyclic peptides of protein N of SARS-CoV Urbani: unit not given here

Row | Sequence | Binding of Control Serum Blood-Bank to Looped peptides [1] | Binding of Control serum Blood-bank to linear peptides [1] | Binding of Control serum LUMC to linear peptides [1] | Binding of Control serum LUMC to looped peptides [1] | Binding of a rabbit serum to linear peptides of protein N of SARS-CoV Urbani (Rabbit serum linear peptides) [2] | Binding of a rabbit serum to looped/cyclic peptides of protein N of SARS-CoV Urbani (Rabbit serum looped peptides) [2] | Binding of antibody 03-018 to linear peptides of the N protein of SARS-CoV Urbani [3] | Binding of antibody 03-018 to looped/cyclic peptides of the N protein of SARS-CoV Urbani [3] | Binding of serum 1a to looped/cyclic peptides of protein N of SARS-CoV Urbani [4] | Binding of serum 1b to looped/cyclic peptides of protein N of SARS-CoV Urbani [4] | Binding of serum 2 to looped/cyclic peptides of protein N of SARS-CoV Urbani [4] | Binding of serum 6 to looped/cyclic peptides of protein N of SARS-CoV Urbani [4] | Binding of serum 37 to looped/cyclic peptides of protein N of SARS-CoV Urbani [4] | Binding of serum 62 to looped/cyclic peptides of protein N of SARS-CoV Urbani [4] | Binding of serum London to looped/cyclic peptides of protein N of SARS-CoV Urbani [4] | Binding of serum SARS-green to looped/cyclic peptides of protein N of SARS-CoV Urbani [4] | Binding of serum SARS-yellow to looped/cyclic peptides of protein N of SARS-CoV Urbani [4] | Control Serum Blood-Bank Looped peptides [1] | Control serum Blood-bank linear peptides [1] | Control serum LUMC linear peptides [1] | also measured
1 | AAEASKKPRQKRTAT | 0.5 | 0.8 | 0.9 | 0.5 | 0.3 | 0.5 | 0.1 | 0.2 | 0.2 | 0.1 | 0.2 | 0.1 | 0.4 | 0.3 | 0.3 | 0.1 | 0.2 |  |  |  | Recognition of the peptide by sera of SARS-CoV infected individuals, and form (linear, looped/cyclic) in which it is recognized [4]: recognized in linear form
2 | ADMDDFSRQLQNSMS |  |  |  |  | 0.2 | 0.4 | 0.1 | 0.1 | 0.3 | 0.2 | 0.2 | 0.0 | 0.4 | 0.3 | 0.2 | 0.1 | 0.2 | 0.4 | 0.8 | 0.7 | Control serum LUMC looped peptides [1]: 0.2; Binding of serum 1a to linear peptides of protein N of SARS-CoV Urbani [4]: 0.3; Binding of serum 1b to linear peptides of protein N of SARS-CoV Urbani [4]: 0.2; Binding of serum 2 to linear peptides of protein N of SARS-CoV Urbani [4]: 0.2; Binding of serum 6 to linear peptides of protein N of SARS-CoV Urbani [4]: 1.5; Binding of serum 37 to linear peptides of protein N of SARS-CoV Urbani [4]: 0.7; Binding of serum 62 to linear peptides of protein N of SARS-CoV Urbani [4]: 0.6; Binding of serum London to linear peptides of protein N of SARS-CoV Urbani [4]: 0.8; Binding of serum SARS-green to linear peptides of protein N of SARS-CoV Urbani [4]: 0.3; Binding of serum SARS-yellow to linear peptides of protein N of SARS-CoV Urbani [4]: 0.7
3 | AFGRRGPEQTQGNFG | 0.4 | 0.6 | 0.5 | 0.3 | 0.1 | 0.0 | 0.1 | 0.2 | 0.3 | 0.1 | 0.3 | 0.1 | 0.3 | 0.3 | 0.3 | 0.1 | 0.1 |  |  |  | Binding of serum 1a to linear peptide (PEPSCAN-ELISA) [4]: 0.2; Binding of serum 1b to linear peptide (PEPSCAN-ELISA) [4]: 0.1; Binding of serum 2 to linear peptide (PEPSCAN-ELISA) [4]: 0.2; Binding of serum 6 to linear peptide (PEPSCAN-ELISA) [4]: 0.3; Binding of serum 37 to linear peptide (PEPSCAN-ELISA) [4]: 0.5; Binding of serum 62 to linear peptide (PEPSCAN-ELISA) [4]: 0.7; Binding of serum London to linear peptide (PEPSCAN-ELISA) [4]: 0.8; Binding of serum SARS-green to linear peptide (PEPSCAN-ELISA) [4]: 0.4; Binding of serum SARS-yellow to linear peptide (PEPSCAN-ELISA) [4]: 0.6
4 | AIKLDDKDPQFKDNV |  |  |  |  | 0.1 | 0.3 | 0.1 | 0.2 | 0.3 | 0.2 | 0.3 | 0.2 | 0.5 | 0.4 | 0.4 | 0.4 | 0.2 | 0.5 | 0.7 | 0.8 | Control serum LUMC looped peptides [1]: 0.5; Binding of serum 1a to linear peptides of protein N of SARS-CoV Urbani [4]: 0.2; Binding of serum 1b to linear peptides of protein N of SARS-CoV Urbani [4]: 0.1; Binding of serum 2 to linear peptides of protein N of SARS-CoV Urbani [4]: 0.2; Binding of serum 6 to linear peptides of protein N of SARS-CoV Urbani [4]: 0.2; Binding of serum 37 to linear peptides of protein N of SARS-CoV Urbani [4]: 0.8; Binding of serum 62 to linear peptides of protein N of SARS-CoV Urbani [4]: 0.9; Binding of serum London to linear peptides of protein N of SARS-CoV Urbani [4]: 0.6; Binding of serum SARS-green to linear peptides of protein N of SARS-CoV Urbani [4]: 0.7; Binding of serum SARS-yellow to linear peptides of protein N of SARS-CoV Urbani [4]: 0.6
